According to patent US8927721B2, “Naphthyridine derivative” (Shionogi & Co., Ltd., priority 2010, dated 2015):

Key:
Recombinant human BACE1 = molecular target: T1, Recombinant human BACE1 (Homo sapiens, UniProt P56817); assay: Assay of BACE1 inhibitory activity; format: biochemical; settings: Recombinant human BACE1, 30° C., 3 hours, pH 5.0; read-out: IC50 (50% inhibitory concentration against the enzymatic activity)
T1 construct: purchased R&D Systems
Procedure: 48.5 μL of substrate peptide solution (Biotin-XSEVNLDAEFRHDSGC-Eu: X=ε-amino-n-capronic acid, Eu=Europium cryptate) was added to each well of 96-hole half-area plate (a black plate: Costar), and after addition of 0.5 μl of the compound of the present invention (N,N′-dimethylformamide solution) and 1 μl of Recombinant human BACE1(R&D Systems), the reaction mixture was incubated at 30° C. for 3 hours. The substrate peptide was synthesized by reacting Cryptate TBPCOOH mono SMP (CIS bio international) with Biotin-XSEVNLDAEFRHDSGC (Peptide Institute, Inc.). The final concentrations of the substrate peptide and Recombinant human BACE1 were adjusted to 18 nmol/L and 7.4 nmol/L, respectively, and the reaction was performed in sodium acetate buffer (50 mmol/L sodium acetate, pH 5.0, 0.008% Triton X-100). After the incubation for reaction, 50 μl of 8.0 μg/ml Streptavidin-XL665 (CIS bio international) dissolved in phosphate buffer (150 mmol/L K2HPO4—KH2PO4, pH 7.0, 0.008% Triton X-100, 0.8 mol/L KF) was added to each well and left stand at 30° C. for 1 hour. After then, fluorescence intensity was measured (excitation wavelength: 320 nm, measuring wavelength: 620 nm and 665 nm) using Wallac 1420 multilabel counter (Perkin Elmer life sciences). Enzymatic activity was determined from counting ratio of each wavelength (10,000×Count 665/Count 620) and 50% inhibitory concentration against the enzymatic activity (IC50) was calculated.

[1] = test system: Aβ production in Neuroblastoma SH-SY5Y cells (SH/APPwt); assay: Measurement of β-amyloid (Aβ) production inhibiting effect in cell; format: cell-based; settings: Homo sapiens, 24 hours, Amyloid β1-40 HTRF, read-out: IC50 (amount needed to inhibit Aβ production by 50%)
Procedure: Neuroblastoma SH-SY5Y cells (SH/APPwt) with human wild-type 13-APP excessively expressed therein were prepared at 8×10^5 cells/mL, and 150 μl portions thereof were inoculated into each well of a 96-well culture plate (Falcon). The cells were cultured for 2 hours at 37° C. in a 5% gaseous carbon dioxide incubator. Then, a solution which have been preliminarily prepared by adding and suspending the compound of the present invention (DMSO (dimethyl sulfoxide) solution) so as to be 2 μl/50 μl medium was added to the cell sap. Namely, the final DMSO concentration was 1%, and the amount of the cell culture was 200 μl. After the incubation was performed for 24 hours from the addition of the test compound, 100 μl of the culture supernatant was collected from each fraction. The amount of the Aβ in each fraction was measured.
The Aβ amount was measured as follows. 10 μl of a homogeneous time resolved fluorescence (HTRF) measurement reagent (Amyloid β1-40 peptide; IBA Molecular Holding, S.A.) and 10 μl of the culture supernatant were put into a 384-well half area microplate (black microplate, Costar) and mixed with each other, and then left standing overnight at 4° C. while the light was shielded. Then, the fluorescence intensity (excitation wavelength: 337 nm, measurement wavelength: 620 nm and 665 nm) was measured with Wallac 1420 multilabel counter (Perkin Elmer life sciences). The Aβ amount was determined from the count rate at each measurement wavelength (10000×Count 665/Count 620), and the amount needed to inhibit A6 production by 50% (IC50) was calculated from at least six different dosages.

CYP3A4 = CYP3A4 (Homo sapiens, UniProt P08684); assay: CYP3A4 fluorescent MBI test; format: in vitro ADME; parameters: host or cells: Escherichia coli; settings: pre-reaction time 0 or 30 minutes, substrate 7-BFC
CYP3A4, sequence (P08684 whole entry): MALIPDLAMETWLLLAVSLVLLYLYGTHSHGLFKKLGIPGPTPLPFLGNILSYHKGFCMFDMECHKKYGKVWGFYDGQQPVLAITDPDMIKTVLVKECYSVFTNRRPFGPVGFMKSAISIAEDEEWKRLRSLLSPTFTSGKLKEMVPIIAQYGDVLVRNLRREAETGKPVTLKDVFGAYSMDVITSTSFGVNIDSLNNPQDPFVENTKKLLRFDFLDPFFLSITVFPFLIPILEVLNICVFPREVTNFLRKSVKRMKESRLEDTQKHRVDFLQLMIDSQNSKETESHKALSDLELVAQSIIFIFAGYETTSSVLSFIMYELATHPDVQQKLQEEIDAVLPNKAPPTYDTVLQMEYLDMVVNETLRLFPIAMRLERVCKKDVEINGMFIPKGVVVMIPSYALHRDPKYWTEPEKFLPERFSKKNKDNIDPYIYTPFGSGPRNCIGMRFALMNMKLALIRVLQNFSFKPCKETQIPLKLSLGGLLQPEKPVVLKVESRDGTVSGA
Procedure: The CYP3A4 fluorescent MBI test is a test of investigating enhancement of CYP3A4 inhibition of the compound of the present invention by a metabolism reaction. 7-benzyloxytrifluoromethylcoumarin (7-BFC) is debenzylated by the CYP3A4 enzyme (enzyme expressed in Escherichia coli) and a metabolite, 7-hydroxytrifluoromethylcoumarin (7-HFC) which emits fluorescent light is produced. The test is performed using 7-HFC production reaction as an index.
The reaction conditions are as follows: substrate, 5.6 μmol/L 7-BFC: pre-reaction time, 0 or 30 minutes; reaction time, 15 minutes; reaction temperature, 25° C. […]
An enzyme in a K-Pi buffer (pH 7.4) and the compound of the present invention solution as a pre-reaction solution were added to a 96-well plate at the composition of the pre-reaction, a part of it was transferred to another 96-well plate so that it was 1/10 diluted by a substrate in a K-Pi buffer, NADPH as a co-factor was added to initiate a reaction as an index (without preincubation) and, after a predetermined time of a reaction, acetonitrile/0.5 mol/L Tris (trishydroxyaminomethane)=4/1 was added to stop the reaction. […] For the plate on which each index reaction had been performed, a fluorescent value of 7-HFC which is a metabolite was measured with a fluorescent plate reader. […]

[2] = Solubility test (turbidity, JP-I, JP-II); format: physicochemical; settings: kinetic from dmso stock, turbidity after 4 hours, 2% DMSO
Procedure: A 2-fold dilution series (12 points) of a 10 mM solution of a compound of the present invention in DMSO was added to a medium (JP-I, JP-II) (2%), and solubility was assessed by 3 stages (High; >40 μM, Medium; 3-40 μM, Low; <3 μM) from a turbidity after 4 hours.

T1 sequence (P56817 46-501): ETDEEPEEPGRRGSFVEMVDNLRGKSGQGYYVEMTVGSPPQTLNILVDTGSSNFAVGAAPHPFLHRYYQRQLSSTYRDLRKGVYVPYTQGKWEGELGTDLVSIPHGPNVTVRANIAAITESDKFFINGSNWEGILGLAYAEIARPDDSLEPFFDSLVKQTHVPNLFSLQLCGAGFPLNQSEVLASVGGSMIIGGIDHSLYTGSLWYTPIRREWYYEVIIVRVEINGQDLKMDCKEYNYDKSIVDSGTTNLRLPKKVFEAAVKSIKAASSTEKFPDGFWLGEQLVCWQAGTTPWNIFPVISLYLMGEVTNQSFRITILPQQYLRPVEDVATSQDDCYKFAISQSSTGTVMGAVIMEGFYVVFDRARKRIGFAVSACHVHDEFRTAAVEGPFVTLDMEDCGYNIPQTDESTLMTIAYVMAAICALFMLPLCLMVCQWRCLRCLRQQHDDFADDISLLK

IC50 (Recombinant human BACE1) [nM] | Structure (SMILES) | further results
≤ 1000 | CC1(c2cc(NC(=O)c3ccc(C#N)cn3)ccc2F)Cc2ccncc2C(N)=N1 (stereo not drawn) [Compound I-8] | –
≤ 1000 | Cc1cnc(C(=O)Nc2ccc(F)c(C3(C)Cc4cnccc4C(N)=N3)c2)cn1 (stereo not drawn) [Compound I-15] | –
≤ 1000 | CC#CCOc1cnc(C(=O)Nc2ccc(F)c(C3(C)Cc4c(F)cncc4C(N)=N3)c2)cn1 (stereo not drawn) [Compound I-22] | –
≤ 1000 | CC1(c2cc(NC(=O)c3ccc(C#N)cn3)ccc2F)Cc2cncc(F)c2C(N)=N1 (stereo not drawn) [Compound I-6] | –
≤ 1000 | COc1cnc(C(=O)Nc2ccc(F)c(C3(C)Cc4ccncc4C(N)=N3)c2)cn1 (stereo not drawn) [Compound I-24] | –
≤ 1000 | Cc1cnc(C(=O)Nc2ccc(F)c(C3(C)Cc4c(F)cncc4C(N)=N3)c2)cn1 (stereo not drawn) [Compound I-21] | –
≤ 1000 | COc1cnc(C(=O)Nc2ccc(F)c(C3(C)Cc4c(F)cncc4C(N)=N3)c2)cn1 (stereo not drawn) [Compound I-20] | –
≤ 1000 | CC1(c2cc(NC(=O)c3ccc(C#N)cn3)ccc2F)Cc2c(F)cncc2C(N)=N1 (stereo not drawn) [Compound I-9] | solubility at 4 h ([2]; JP-I medium, pH 1.2, simulated gastric fluid, JP-I): > 40 µM; solubility at 4 h ([2]; JP-II medium, pH 6.8, aqueous buffer, JP-II): > 40 µM
≤ 1000 | COc1cnc(C(=O)Nc2ccc(F)c(C3(C)Cc4cnccc4C(N)=N3)c2)cn1 (stereo not drawn) [Compound I-14] | –
≤ 1000 | CC1(c2cc(NC(=O)c3ccc(Cl)cn3)ccc2F)Cc2c(F)cncc2C(N)=N1 (stereo not drawn) [Compound I-17] | –
≤ 1000 | CC1(c2cc(NC(=O)c3ccc(Cl)cn3)ccc2F)Cc2ccncc2C(N)=N1 (stereo not drawn) [Compound I-3] | –
≤ 1000 | CC1(c2cc(NC(=O)c3ccc(Cl)cn3)ccc2F)Cc2cnccc2C(N)=N1 (stereo not drawn) [Compound I-11] | –
≤ 1000 | CC1(c2cc(NC(=O)c3ccc(C(F)(F)F)cn3)ccc2F)Cc2ccncc2C(N)=N1 (stereo not drawn) [Compound I-23] | –
≤ 1000 | CC#CCOc1cnc(C(=O)Nc2ccc(F)c(C3(C)Cc4ccncc4C(N)=N3)c2)cn1 (stereo not drawn) [Compound I-26] | –
≤ 1000 | CC#CCOc1cnc(C(=O)Nc2ccc(F)c(C3(C)Cc4cnccc4C(N)=N3)c2)cn1 (stereo not drawn) [Compound I-16] | –
≤ 1000 | CC1(c2cc(NC(=O)c3ncc(F)cc3F)ccc2F)Cc2cnccc2C(N)=N1 (stereo not drawn) [Compound I-12] | –
≤ 1000 | Cc1cnc(C(=O)Nc2ccc(F)c(C3(C)Cc4ccncc4C(N)=N3)c2)cn1 (stereo not drawn) [Compound I-25] | –
≤ 1000 | CC1(c2cc(NC(=O)c3ccc(C(F)(F)F)cn3)ccc2F)Cc2cnccc2C(N)=N1 (stereo not drawn) [Compound I-13] | –

Continued, compound first:

Structure (SMILES) | IC50 (Recombinant human BACE1) [nM] | further results
CC1(c2cc(NC(=O)c3ncc(F)cc3F)ccc2F)Cc2c(F)cncc2C(N)=N1 (stereo not drawn) [Compound I-18] | ≤ 1000 | –
CC#CC(=O)Nc1ccc(F)c(C2(C)Cc3c(F)cncc3C(N)=N2)c1 (stereo not drawn) [Compound I-34] | ≤ 1000 | IC50 [1]: 20 nM
CC#CC(=O)Nc1ccc(F)c(C2(C)Cc3cnccc3C(N)=N2)c1 (stereo not drawn) [Compound I-27] | 308 | –
CCC#CC(=O)Nc1ccc(F)c(C2(C)Cc3cnccc3C(N)=N2)c1 (stereo not drawn) [Compound I-33] | ≤ 1000 | –
CC1(c2cc(NC(=O)c3ccc(C#N)cn3)ccc2F)Cc2ncccc2C(N)=N1 (stereo not drawn) [Compound I-1] | 54 | CYP3A4 fluorescent MBI (difference between IC50 values without and with preincubation) (CYP3A4): (−) (when the difference is 3 μM or less, this was defined as (−))
CC1(c2cc(NC(=O)c3ccc(C#N)cn3)ccc2F)Cc2cccnc2C(N)=N1 (stereo not drawn) [Compound I-4] | ≤ 1000 | –
COCC#CC(=O)Nc1ccc(F)c(C2(C)Cc3cnccc3C(N)=N2)c1 (stereo not drawn) [Compound I-28] | ≤ 3000 | IC50 [1]: ≤ 3000 nM
CC1(c2cc(NC(=O)c3ccc(C(F)(F)F)cn3)ccc2F)Cc2c(F)cncc2C(N)=N1 (stereo not drawn) [Compound I-19] | ≤ 1000 | –
CC1(c2cc(NC(=O)c3ccc(C#N)cn3)ccc2F)Cc2c(ccnc2F)C(N)=N1 (stereo not drawn) [Compound I-10] | ≤ 1000 | –
CCCC#CC(=O)Nc1ccc(F)c(C2(C)Cc3cnccc3C(N)=N2)c1 (stereo not drawn) [Compound I-29] | ≤ 3000 | –
CC1(c2cc(NC(=O)c3ccc(C#N)cn3)ccc2F)Cc2ncc(F)cc2C(N)=N1 (stereo not drawn) [Compound I-7] | ≤ 1000 | IC50 [1]: 2 nM
CC1(c2cc(NC(=O)C#CC3CC3)ccc2F)Cc2cnccc2C(N)=N1 (stereo not drawn) [Compound I-31] | ≤ 3000 | –
CC1(c2cc(NC(=O)C#Cc3ccccc3)ccc2F)Cc2cnccc2C(N)=N1 (stereo not drawn) [Compound I-30] | 147 | IC50 [1]: 46 nM
CCCCC#CC(=O)Nc1ccc(F)c(C2(C)Cc3cnccc3C(N)=N2)c1 (stereo not drawn) [Compound I-32] | ≤ 3000 | –
